# Measurements: patent US8609723B2 (Beijing Dingguochangsheng Biotech., Co., Ltd., priority 2008, dated 2013)
# Experiments:
# [1] = test system: 5-HT, NA, DA and metabolites thereof in hippocampus; test: Detection of monoamine and metabolites thereof in brains of mice; type: in vivo; conditions: 18.4 mg/kg
# Procedure: Hippocampus was collected immediately on ice, weighed, put into an Eppendorf tube and kept in refrigeratory at −80° C. To each 100 mg brain tissue, 200 μl ice-cooled Solution A (0.4 mol/L HCLO4) was added. The mixture was homogenized ultrasonically in a ice bath, kept in dark at 4° C. for 60 min, and centrifuged for 20 min (12,000 rpm, 4° C.). […] The mixture was vortexed thoroughly for 10 min, kept at 4° C. in dark for 60 min, and centrifuged again for 20 min (12,000 rpm, 4° C.). The supernatant was collected and measured for the content of monoamine. The contents of 5-HT, NA, DA, 5-HIAA and DOPAC in brain tissue were determined by High Effective Liquid Phase Electrochemistry. […] The contents of monoamine and metabolites thereof in brain tissue were shown as ng/g wet tissue weight.
# S-180 sarcoma cells [2] = test: Antitumor experiment of tumor S-180-bearing mice; type: in vivo; conditions: 7-day dosage by single administration, 7 days
# From the text: During the experiment, the mice were inoculated with S-180 sarcoma cells (×10^7) in armpits. […] Seven days later, the mice were sacrificed by decollation. The tumors were removed, and the mice and the tumors were weighed separately.
# HCT116 cells = test: Antitumor experiment of tumor HCT116-bearing mice; type: in vivo; conditions: 7-day dosage by single administration, 7 days
# From the text: During the experiment, the mice were inoculated with HCT116 cells (×10^7) in armpits. […] Seven days later, the mice were sacrificed by decollation. The tumors were removed, and the mice and the tumors were weighed separately.
# male ICR mice [3] = test: Tail suspension test in mice; type: in vivo; conditions: 18.4 mg/kg single administration, vs control group
# Procedure: The tail suspension test was carried out for each of these groups on Days 3, 7 and 14 after administration, except that such experiment was not performed for the curcumin group on Day 14. Tails of the mice were taped on a special iron stand at 1 cm from the tips, whilst keeping the mice staying at a height of 50 cm from ground. Performance of the mice was observed within 6 min, and the accumulative immobile time within the last 4 min was recoded for each mouse.
# Melanoma cell = test: Inhibitory effect on tumor cells, MTT method; type: cell-based; conditions: 25 μM, 72 h
# Procedure: (§1) The tumor cells with a stable passage feature, including Hela tumor cells, renal cancer cells, breast cancer cells, gastric cancer cells, rectal cancer cells, pulmonary cancer cells, hepatic cancer cells HepG2, prostate cancer cells, esophageal cancer cells, sarcoma cells, glioma cells, melanoma cells, lymphoma cells, and bladder cancer cells, were counted under a microscope (×10^4), and cultured in a 96-well plate under CO2 saturated water vapor for 24 h.
# Lymphoma cell = test: Inhibitory effect on tumor cells, MTT method; type: cell-based; conditions: 25 μM, 72 h
# Procedure: as §1
# [4] = test system: Gastric cancer cell MGC80-3; test: Inhibitory effect on tumor cells, MTT method; type: cell-based; conditions: Gastric cancer cell MGC80-3, 25 μM, 72 h
# Procedure: as §1
# [5] = test system: Pulmonary cancer cell A549; test: Inhibitory effect on tumor cells, MTT method; type: cell-based; conditions: Pulmonary cancer cell A549, 25 μM, 72 h
# Procedure: as §1
# [6] = test system: chronically stressed rats; test: Forced swimming test of rats (chronic stress model); type: in vivo; conditions: vs model control group
# From the text: The rats in the normal control group were raised normally under a condition without any stimulation except for weighing body weight, measuring body temperature, and subjected to sugar test. All of other groups were subjected to stimulations of same type and same strength. During the experiment, different types of stimulations were applied in an unpredictable manner, and the same type of stimulation was enhanced each time.
# The chronic stress course was 20 days in total, once per day, from 9:00 AM to 2:00 PM. The stress protocol was shown as follows: horizontally shaking at a high speed for 45 min; nipping tails (1 cm from the tail root): 1 min; depriving of water for 24 h; forbidding moving for 1.5 h; fasting for 24 h; stimulating with ice water (water temperature: 10° C.) for 5 min; electric shocking (1 mA, time course: is, 1 shock/min) the bottoms of feet for 30 min; changing cages and raising separately for 24 h; forbidding moving for 2 h; nipping tails (1 cm from the root of tail) for 1 min; depriving of water for 24 h; horizontally shaking at a high speed for 1.5 h; fasting for 24 h; nipping tails (1 cm from the tail root): 1 min; electric shocking (1 mA, time course: 1 s, 1 shock/min) the bottoms of feet for 40 min; stimulating with ice water for 5 min; changing cages and raising separately for 24 h; horizontally shaking at a high speed for 60 min; electric shocking (1 mA, time course: 1 s, 1 shock/min) the bottoms of feet for 50 min; depriving of water for 24 h; forbidding moving for 2.5 h; and 24 h social isolation.
# Please see FIG. 7. 24 hours before the formal test, rats were placed into a round glass container (height: 40 cm, diameter: 18 cm) filled with water (depth: 23 cm) with a temperature of 24±1° C., and forced to conduct swim training for 15 min. […] The accumulative immobile time within the last 4 min was observed and recorded for each rat. The immobile time is intended to mean the period within which the rat stops to struggle, floats in the water and keeps immobile, or only makes a few slight movements that are necessary to keep its head floating on the surface of water.
# S-180 sarcoma cells [7] = test: Survival experiment of tumor-bearing mice; type: in vivo; conditions: S-180-bearing mice, 7-day dosage by single administration; 95% confidence interval 12.8~20.2 days
# Procedure: During the experiment, the mice were inoculated with S-180 sarcoma cells (×10^5) in armpits, and the next day the administration begins. The survival rate was recorded for each group.
# male ICR mice [8] = test: Forced swimming test of mice; type: in vivo; conditions: 18.4 mg/kg single administration, vs control group
# Procedure: The mice were forced to swim on Days 3, 7 and 14 after administration, except that such experiment was not performed for the curcumin group on Day 14.
# Twenty four hours before the formal test, the mice were placed into a round glass container (height: 25 cm, diameter: 10 cm) filled with water (depth: 10 cm) with a temperature of 24±1° C., and forced to conduct swim training for 15 min. Twenty four hours later, the mice were placed into the round glass container filled with water (depth: 10 cm) again and forced to swim for 6 min. The accumulative immobile time within the last 4 min was observed and recorded for each mouse. The immobile time is intended to mean the period within which the mouse stops to struggle, floats in the water and keeps immobile, or only makes a few slight movements that are necessary to keep its head floating on the surface of water.
# [9] = first line of group (Day 3 presumed)
# [10] = second line of group (Day 7 presumed)
substance,measurement,setting,value
curcumin decanoate [long acting curcumin],Hippocampus 5-HIAA,[1]; [9],183.4 ± 14.2 ng/g
same,Hippocampus 5-HIAA/5-HT,[1]; [9],0.25 ± 0.02
same,Hippocampus 5-HT,[1]; [9],713.1 ± 19.2 ng/g
same,Hippocampus DOPAC,[1]; [9],13.1 ± 2.0 ng/g
same,Hippocampus Dopamine,[1]; [9],20.3 ± 5.9 ng/g
same,Hippocampus Noradrenaline,[1]; [9],369.9 ± 12.3 ng/g
same,Hippocampus 5-HIAA,[1]; [10],186.3 ± 8.4 ng/g
same,Hippocampus 5-HIAA/5-HT,[1]; [10],0.25 ± 0.03
same,Hippocampus 5-HT,[1]; [10],725.0 ± 30.4 ng/g
same,Hippocampus DOPAC,[1]; [10],14.6 ± 2.1 ng/g
same,Hippocampus Dopamine,[1]; [10],21.2 ± 5.6 ng/g
same,Hippocampus Noradrenaline,[1]; [10],372.2 ± 21.6 ng/g
same,inhibitory rate of tumors,S-180 sarcoma cells [2]; high dosage group,50.1%
same,inhibitory rate of tumors,S-180 sarcoma cells [2]; low dosage group,28.5%
same,inhibitory rate of tumors,S-180 sarcoma cells [2]; medium dosage group,57.8%
same,inhibitory rate of tumors,HCT116 cells; high dosage group,49.3%
same,inhibitory rate of tumors,HCT116 cells; low dosage group,29.6%
same,inhibitory rate of tumors,HCT116 cells; medium dosage group,58.4%
same,reduced the accumulative immobile time (tail suspension),male ICR mice [3]; 3 days after administration,50.7%
same,reduced the accumulative immobile time (tail suspension),male ICR mice [3]; 7 days after administration,59.5%
same,reduced the accumulative immobile time (tail suspension),male ICR mice [3]; 14 days after administration,31.8%
same,Inhibitory rate (%),Melanoma cell,49.9 ± 2.0. %
same,Inhibitory rate (%),Lymphoma cell,55.8 ± 1.7%
same,Inhibitory rate (%),[4],42.6 ± 1.7%
same,Inhibitory rate (%),[5],35.9 ± 1.2%
same,reduced the accumulative immobile time of the forced swimming test,[6]; 4.6 mg/kg once every 7 days,37.6%
same,reduced the accumulative immobile time of the forced swimming test,[6]; 9.2 mg/kg once every 7 days,49.4%
same,reduced the accumulative immobile time of the forced swimming test,[6]; 18.4 mg/kg once every 7 days,58.9%
same,medium survival time,S-180 sarcoma cells [7],17.5 days
same,"reduced the accumulative immobile time (forced swimming, mice)",male ICR mice [8]; 3 days after administration,62.1%
same,"reduced the accumulative immobile time (forced swimming, mice)",male ICR mice [8]; 7 days after administration,74.7%
same,"reduced the accumulative immobile time (forced swimming, mice)",male ICR mice [8]; 14 days after administration,37.8%
